The structures appear in SMILES notation.

Here are results for 1 compound from US9538754B2, “Combinations of pyrimethanil and monoterpenes” (Janssen Pharmaceutica NV, priority 2010, dated 2017).

Holding throughout (assay): Poison Plate Assay
What all share (format): cell-based

For test [1], the system named is Chaetomium globosum CEB1218.2. To be noted: CEB1218.2, 336 h, pyrimethanil (I) with thymol (II-a), ppm total active ingredient, Glucose Agar, 27° C., growth evaluated after two weeks, read-out: MIC-values (minimum inhibitory concentration) in ppm. The procedure:
(§1) • Name of component (I): pyrimethanil • Name of component (II): thymol (II-a) • β-thujaplicin (II-b) • Test models: Fungi: to each well of a 24-well microliter plate, 1000 μl of Glucose Agar (GA: 10 g glucose, 1.5 g K2HPO4, 2 g KH2PO4, 1 g (NH4)2SO4, 0.5 g MgSO4 and 12.5 g agar in 1 liter deionised water) containing the appropriate combination of the test compounds in one of the concentrations of a dose series is added. The nutrient medium is inoculated with the test fungi by adding a sporeimycelium suspension (10 μl) or a small piece of agar from the margin of an actively growing colony and incubated under dark at 27° C. with 70% relative humidity. […] In addition to this dose series, pyrimethanil single was also tested at 9.50-7.13-5.34-4.01-3.01-2.25-1.69-1.27-0.95-0.71-0.53-0.40 ppm in order to define a lower limit to its activity.
(§2) A. G. Nass (1957) “Some aspects of the notions additivity, synergism and antagonism in the simultaneous activity of two antibacterial agents in vitro” Arch. intern. Pharmaco-dynamie 109: 211-228; Steinberg, D. C. (2000) “Measuring synergy” cosmetics & Toiletries 115(11): 59-62; and Lada, A., A. N. Petrocci, H. A. Green, and J. J. Merianos (1977) “Antimicrobial composition” U.S. Pat. No. 4,061,750, 3 pp.):
(§3) [formula] wherein: • QA is the concentration of compound A in ppm, acting alone, which produced an end point (e.g. MIC), • Qa is the concentration of compound A in ppm, in the mixture, which produced an end point (e.g. MIC), • QB is the concentration of compound B in ppm, acting alone, which produced an end point (e.g. MIC), • Qb is the concentration of compound B in ppm, in the mixture, which produced an end point (e.g. MIC). When the Synergy Index is greater than 1.0, antagonism is indicated. When the SI is equal to 1.0, additivity is indicated.

Test [2] concerns Stachybotrys atra CBS328.37. To be noted: CBS328, 336 h, pyrimethanil (I) with thymol (II-a), ppm total active ingredient, Glucose Agar, 27° C., growth evaluated after two weeks, read-out: MIC-values (minimum inhibitory concentration) in ppm. The procedure:
as §1, §2, §3

In test [3] the test system is Ulocladium atrum IMI 214669a. To be noted: Alternaria atra, IMI214669A, 336 h, pyrimethanil (I) with β-thujaplicin (II-b), ppm total active ingredient, Glucose Agar, 27° C., growth evaluated after two weeks, read-out: MIC-values (minimum inhibitory concentration) in ppm. The procedure:
as §1, §2, §3

On to `Cc1cc(C)nc(Nc2ccccc2)n1` [component (I), 4,6-dimethyl-N-phenyl-2-pyrimidinamine], for which the results for the MIC in test [1], in test [2] and in test [3] were 400 µg/mL, 127 µg/mL and 23 µg/mL, respectively.
